Measured values reported in patent US7348330B2, “1-azabicyclo [2,2,2] octan-3-one derivatives” (Aprea AB, priority 2000, dated 2008).

What was measured:
[1] = tested on: Saos-2-His-273 cells; experiment: WST-1 growth suppression assay; type: cell-based, human
Method: (§1) Saos-2-His-273 cell line stably transfected with construct allowing expression of mutant His-273 p53 in a tetracycline-dependent manner was used for screening (Selivanova et al., 1997). p53 expression was inhibited by incubation of cells with doxycycline (5 μg/ml). Cells were grown in 96-well plates at a density of 3000 cells per well with or without doxycycline and treated with 25 μM of the compounds from the NCI library of low molecular weight (LMW) compounds. After 48 hours of incubation the proliferative cell reagent WST-1 (Roche) was added to the cells. The degree of WST-1 reduction, which reflects cell viability, was measured by microplate reader at λ490 nm according to the manufacturer (Roche).
as §1, with “1997).” for “1997). p53 expression was inhibited by incubation of cells with doxycycline (5 μg/ml).”, “doxycycline. The treatment was done at a concentration of” for “doxycycline and treated with”, “each chemical” for “the compounds”, “is proportional to the” for “reflects”, “by a” for “by”
Saos-2-His-273 cells grown in the presence or absence of doxycycline and parental Saos-2 cells were treated with the structural analogs and analyzed as described above. The effect of structural analogs on cell growth was tested using different concentrations of the compounds, ranging from 2.5 to 25 μM. Compounds MIRA-2, MIRA-3 and PRIMA-2, PRIMA-3 were identified that were able to suppress the growth of Saos-2-His-273 cells expressing mutant p53 (tet−). […] In addition, compounds MIRA-2 and MIRA-3 suppressed the growth of cells in a mutant p53-dependent manner at 10 μM concentration, in contrast to 25 μM of compound MIRA-1 required for the selective effect.

[2] = tested on: Saos-2 cells lacking p53; experiment: Colony formation assay; type: cell-based, human; details: 5 µM of compound; colonies after 14 days
Description: Colonies were stained with Giemsa and counted 14 days after seeding.
The cells were Giemsa stained and scored for the appearance of colonies after 14 days.

[3] = tested on: recombinant wild type and mutant p53 proteins; experiment: ELISA of p53 conformation upon heating 30 min at 37° C.; type: biochemical, human; details: for appearance of PAb240 epitope (unfolding) upon heating: 37° C.; for PAb1620 epitope after heating: 30 min at 37° C.; for DO-1 non-conformational epitope: incubation with compounds
Method: Absorbance of the control sample incubated on ice was taken as 100%.
20 ng of GST-wtp53, GST-mtp53-175 and GST-mtp53-248 were heated at 37° C. for 30 min or kept on ice. The procedure was performed with or without tested compounds. The ELISA analyses were done as described by (Foster et al., 1999). Briefly, after the treatment, samples were diluted with coating buffer (150 mM KCL, 25 mM HEPES) supplemented with 10 mM DTT. The whole mixture was apply to ELISA plates (MaxiSorp, Nunc) and incubated at +4° C. for 35 min. The wells were washed with coating buffer. The wells were blocked by 5% skim milk in PBS by incubating at +4° C. for 1 h. […] Samples were incubated at +4° C. for 30 min. Wells were rinsed twice with PBS. After that, a secondary antibody (anti-mouse, conjugated with horse radish peroxidase) was incubated with samples at +4° C. for 30 min. Then plates were washed 5 times with PBS and a peroxidase substrate was added. An absorbance at λ405 nm was monitored by ELISA reader.

[4] = molecular target: T1, GST-His-175 mutant p53 protein (Homo sapiens, UniProt P04637, R175H); experiment: Band shift assay; type: biochemical
T1 construct: made in house
Method: FIG. 7A Lane 1-3, GST-His-175 mutant p53 is unable to bind DNA. […] PAb421 antibody was added to all reaction mixtures. […] Monoclonal antibody PAb421 was added to the reaction mixtures in lanes 2-8; PAb1801 was, added to the reaction mixtures in lanes 9-15.
(§2) The GST-p53 proteins were prepared as described (Selivanova et al., 1997). Band shift assays were performed in binding buffer containing 100 mM HEPES pH 7.5, 50 mM KCl , 1 mg/ml BSA, 0.1% Triton X-100, 2 mM MgCl2 and 1 mM DTT essentially as in (Selivanova et al., 1996).
Substitution of arginin at position 175 causes a gross unfolding of the DNA binding core domain of p53.

[5] = tested on: SKOV-His-175 cells; experiment: WST-1 proliferation assay; type: cell-based, human; details: for increase in cell survival by cycloheximide pretreatment: cycloheximide before addition of compound
Method: FIG. 13B, PRIMA-3 reactivated the hot spot p53 mutant Trp-248 in H1299 lung adenocarcinoma cells. FIG. 13C, MIRA-2 and MIRA-3 reactivated His-175 mutant of p53 in SKOV cells. […] FIG. 13G, PRIMA-2 reactivated mutant p53 His-273 in SKOV cells.
as §1
The cycloheximide treatment renders SKOV-His-175 resistant to MIRA-1 as well, resulting in about 4 fold increase in cell survival. […] In addition, SKOV-His-175 cells were at least 3 fold more sensitive to treatment with MIRA-1 in comparison with SKOV-His-175-22/23 cells.
Growth suppression by analogs in the presence or absence of p53 expression was measured as described in FIG. 1. […] Analogs of MIRA-1 induced mutant p53-dependent growth suppression in SKOV-His-175 cells (FIG. 13C).

[6] = tested on: SW480 colon carcinoma cells carrying endogenous His-273 mutant p53; experiment: Western blot of p53 target genes p21 and MDM2; type: cell-based; details: Western blotting
Description: In order to assess the effect of the analogs on the transcriptional transactivation function of mutant p53, we tested the expression of p53 target genes after treatment with analogs of colon carcinoma cells SW480 expressing endogenous His-273 mutant p53.

[7] = tested on: human tumor cell lines with different p53 status (p53 null, wild type p53, mutant p53); experiment: WST-1 growth suppression, series of tumor cell lines; type: cell-based
Description: In addition, mouse p53 null J3D T-cell lymphoma line was used.

[8] = molecular target: T2, Phe-176 mutant p53 protein (Homo sapiens, UniProt P04637, C176F); experiment: Band shift assay, KRC/Y cells; type: biochemical
T2 construct: as a source for endogenous p53 protein; endogenous in cells; host or cells: KRC/Y renal carcinoma cells (cell extract)
Method: as §2

[9] = tested on: HCT116 colon carcinoma cells that carry wild type p53; experiment: Western blot of p53 target genes p21 and MDM2; type: cell-based

## CCC(=O)OCN1C(=O)C=CC1=O [MIRA-1]
[1]; tet− vs tet+ and parental Saos-2, 48 hours, 2.5 to 25 μM tested
  concentration at which growth of mutant p53 containing cells is selectively suppressed: 25 µM
[2]
  inhibition of colony formation: 48%
[3]
  appearance of PAb240 epitope (unfolding) upon heating: able to prevent unfolding
  PAb1620 epitope after heating: preserve the conformation-dependent epitope
  DO-1 non-conformational epitope: not affected
[4]
  restoration of specific DNA binding: able to restore
[5]
  sensitivity of SKOV-His-175 cells in comparison with SKOV-His-175-22/23 cells: at least 3 fold
  increase in cell survival by cycloheximide pretreatment: about 4 fold
[6]
  induction of MDM2 and p21: induced MDM2 and p21
[7]
  growth suppression of mutant p53-expressing cells versus p53 null and wild type p53 cells: more efficiently
[8]
  restoration of specific DNA binding: not capable of restoring
[9]
  MDM2 and p21 protein levels: did not cause any significant changes

## O=C1C2CCN(CC2)C1(CO)CO [PRIMA-1, 2,2-bis(hydroxymethyl)-1-azabicyclo[2,2,2]octan-3-one]
[1]; mutant p53 expressed
  growth of cells expressing mutant p53 (growth curves): completely inhibited growth
[1]; no mutant p53 expression
  growth of cells in the absence of mutant p53 expression: minor reduction in growth rate
[3]
  appearance of PAb240 epitope (unfolding) upon heating: able to prevent unfolding
  PAb1620 epitope after heating: preserve the conformation-dependent epitope
  DO-1 non-conformational epitope: not affected
[5]
  increase in cell survival by cycloheximide pretreatment: 4 fold
[6]
  induction of MDM2 and p21: induced MDM2 and p21
[7]
  growth suppression of mutant p53-expressing cells versus p53 null and wild type p53 cells: more efficiently
[9]
  MDM2 and p21 protein levels: did not cause any significant changes
